Values belong to the compound of their own block, whether it stands above or below them.
Test system: 439559-082-T-J2-PDC complex spheroid growth
Assay: Anticancer human tumor 439559-082-T-J2-PDC patient-derived colon adenocarcinoma cell line growth inhibition [Asc]
Conditions: for IC50: curve of first compound; for viability, T/C: stronger effect = lower value
Outline: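 Concentration series start at each agent's clinical Cmax, or at 10 microM when none is established, and drop in half-log steps; agents are applied alone or together to complex spheroids built with HUVEC and hMSC.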

[1] = second compound 0.00316 µM, first compound 0.00316 µM
[2] = second compound 0.00316 µM, first compound 0.01 µM
[3] = second compound 0.00316 µM, first compound 0.0316 µM
[4] = second compound 0.00316 µM, first compound 0.1 µM
[5] = second compound 0.01 µM, first compound 0.00316 µM
[6] = second compound 0.01 µM, first compound 0.01 µM
[7] = second compound 0.01 µM, first compound 0.0316 µM
[8] = second compound 0.01 µM, first compound 0.1 µM
[9] = second compound 0.0316 µM, first compound 0.00316 µM
[10] = second compound 0.0316 µM, first compound 0.01 µM
[11] = second compound 0.0316 µM, first compound 0.0316 µM
[12] = second compound 0.0316 µM, first compound 0.1 µM
[13] = second compound 0.1 µM, first compound 0.00316 µM
[14] = second compound 0.1 µM, first compound 0.01 µM
[15] = second compound 0.1 µM, first compound 0.0316 µM
[16] = second compound 0.1 µM, first compound 0.1 µM
[17] = second compound 0.316 µM, first compound 0.00316 µM
[18] = second compound 0.316 µM, first compound 0.01 µM
[19] = second compound 0.316 µM, first compound 0.0316 µM
[20] = second compound 0.316 µM, first compound 0.1 µM
[21] = second compound 1 µM, first compound 0.00316 µM
[22] = second compound 1 µM, first compound 0.01 µM
[23] = second compound 1 µM, first compound 0.0316 µM
[24] = second compound 1 µM, first compound 0.1 µM
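Also: spheroids exposed to agents for 7 days starting day 3 after seeding.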
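For viability, T/C in this document: percent of DMSO vehicle control viability with 100% = vehicle.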

IC50 (second compound 0.00316 µM): > 1000 nM | IC50 (second compound 0.01 µM): > 1000 nM | IC50 (second compound 0.0316 µM): > 1000 nM | IC50 (second compound 0.1 µM): > 1000 nM | IC50 (second compound 0.316 µM): > 1000 nM | IC50 (second compound 1 µM): 380 nM
Compound: COc1c(OCCCN2CCOCC2)ccc2c3n(c(=NC(=O)c4cnc(N)nc4)nc12)CCN3 + CNC(C)C(=O)NC1CN(S(=O)(=O)c2cccc(S(=O)(=O)N3CCC4CCC(C(=O)NC(c5ccccc5)c5ccccc5)N4C(=O)C(NC(=O)C(C)NC)C3)c2)CCC2CCC(C(=O)NC(c3ccccc3)c3ccccc3)N2C1=O
viability, T/C [1]: 100% | viability, T/C [2]: 95.2% | viability, T/C [3]: 98.9% | viability, T/C [4]: 80.8% | viability, T/C (second compound 0.00316 µM, first compound 0.316 µM): 72.6% | viability, T/C (second compound 0.00316 µM, first compound 1 µM): 64.7% | viability, T/C [5]: 102% | viability, T/C [6]: 88.6% | viability, T/C [7]: 99.1% | viability, T/C [8]: 84.5% | viability, T/C (second compound 0.01 µM, first compound 0.316 µM): 73.8% | viability, T/C (second compound 0.01 µM, first compound 1 µM): 63.4% | viability, T/C [9]: 93.2% | viability, T/C [10]: 98.8% | viability, T/C [11]: 92.5% | viability, T/C [12]: 77.4% | viability, T/C (second compound 0.0316 µM, first compound 0.316 µM): 81.5% | viability, T/C (second compound 0.0316 µM, first compound 1 µM): 71.2% | viability, T/C [13]: 96.2% | viability, T/C [14]: 109% | viability, T/C [15]: 82.2% | viability, T/C [16]: 78.9% | viability, T/C (second compound 0.1 µM, first compound 0.316 µM): 70.5% | viability, T/C (second compound 0.1 µM, first compound 1 µM): 62.6% | viability, T/C [17]: 94.9% | viability, T/C [18]: 89% | viability, T/C [19]: 85.1% | viability, T/C [20]: 66.3% | viability, T/C (second compound 0.316 µM, first compound 0.316 µM): 61.3% | viability, T/C (second compound 0.316 µM, first compound 1 µM): 58.6% | viability, T/C [21]: 80.8% | viability, T/C [22]: 74.5% | viability, T/C [23]: 65.6% | viability, T/C [24]: 53.1% | viability, T/C (second compound 1 µM, first compound 0.316 µM): 53.8% | viability, T/C (second compound 1 µM, first compound 1 µM): 44.8%

IC50 (second compound 0.00316 µM): > 100 nM | IC50 (second compound 0.01 µM): > 100 nM | IC50 (second compound 0.0316 µM): > 100 nM | IC50 (second compound 0.1 µM): > 100 nM | IC50 (second compound 0.316 µM): > 100 nM | IC50 (second compound 1 µM): > 100 nM
Compound: NC1CCC(NC2CC2c2ccccc2)CC1 (centres undefined) + CNC(C)C(=O)NC1CN(S(=O)(=O)c2cccc(S(=O)(=O)N3CCC4CCC(C(=O)NC(c5ccccc5)c5ccccc5)N4C(=O)C(NC(=O)C(C)NC)C3)c2)CCC2CCC(C(=O)NC(c3ccccc3)c3ccccc3)N2C1=O
viability, T/C (second compound 0.00316 µM, first compound 0.000316 µM): 104% | viability, T/C (second compound 0.00316 µM, first compound 0.001 µM): 100% | viability, T/C [1]: 110% | viability, T/C [2]: 95.7% | viability, T/C [3]: 98.4% | viability, T/C [4]: 98.2% | viability, T/C (second compound 0.01 µM, first compound 0.000316 µM): 102% | viability, T/C (second compound 0.01 µM, first compound 0.001 µM): 95% | viability, T/C [5]: 109% | viability, T/C [6]: 111% | viability, T/C [7]: 99.5% | viability, T/C [8]: 107% | viability, T/C (second compound 0.0316 µM, first compound 0.000316 µM): 107% | viability, T/C (second compound 0.0316 µM, first compound 0.001 µM): 91.3% | viability, T/C [9]: 101% | viability, T/C [10]: 109% | viability, T/C [11]: 104% | viability, T/C [12]: 107% | viability, T/C (second compound 0.1 µM, first compound 0.000316 µM): 105% | viability, T/C (second compound 0.1 µM, first compound 0.001 µM): 101% | viability, T/C [13]: 98.1% | viability, T/C [14]: 104% | viability, T/C [15]: 96.4% | viability, T/C [16]: 98% | viability, T/C (second compound 0.316 µM, first compound 0.000316 µM): 95.9% | viability, T/C (second compound 0.316 µM, first compound 0.001 µM): 101% | viability, T/C [17]: 93.6% | viability, T/C [18]: 100% | viability, T/C [19]: 101% | viability, T/C [20]: 97% | viability, T/C (second compound 1 µM, first compound 0.000316 µM): 85.5% | viability, T/C (second compound 1 µM, first compound 0.001 µM): 85.9% | viability, T/C [21]: 87.4% | viability, T/C [22]: 84.5% | viability, T/C [23]: 86.3% | viability, T/C [24]: 77.3%
